Laboratory results from patent US8541455B2, “Derivatives of 2-pyridin-2-yl-pyrazol-3(2H)-one, preparation and therapeutic use thereof as HIF activators” (Sanofi, priority 2008, dated 2013).
Structures can show the parent of a compound that is named as a salt.

melting point | Compound
96 °C | COc1cc(Cc2c(C)[nH]n(-c3ccccn3)c2=O)cc(OC)c1 [Compound 179]
76 °C | CCc1[nH]n(-c2ccccn2)c(=O)c1Cc1ccccc1 [Compound 195]
154 °C | Cc1[nH]n(-c2ccccn2)c(=O)c1Cc1ccc(C#N)cc1 [Compound 173]
62 °C | COc1ccc(OC)c(Cc2c(C)[nH]n(-c3ccccn3)c2=O)c1 [Compound 184]
254 °C | COc1ccccc1Cc1c(C)[nH]n(-c2ccccn2)c1=O [Compound 192]
196 °C | CCNS(=O)(=O)c1ccc(-n2[nH]c(C)c(Cc3cccnc3)c2=O)nc1 (as salt: HCl) [Compound 89]
90 °C | Cc1[nH]n(-c2ccccn2)c(=O)c1Cc1cccc(C#N)c1 [Compound 177]
258 °C | COC(=O)c1ccc(-n2[nH]c(C)c(Cc3ccccc3Cl)c2=O)nc1 (as salt: HCl) [Compound 170]
178 °C | CCN(c1ccccc1)S(=O)(=O)c1ccc(-n2[nH]c(C)c(Cc3ccc(OCCN(C)C)cc3)c2=O)nc1 [Compound 49]
146 °C | CCN(c1ccccc1)S(=O)(=O)c1ccc(-n2[nH]c(C)c(Cc3cccc(OC)c3)c2=O)nc1 [Compound 55]
106 °C | Cc1[nH]n(-c2ccccn2)c(=O)c1Cc1ccccc1C(F)(F)F [Compound 188]
176 °C | Cc1[nH]n(-c2ccc(S(=O)(=O)c3ccccc3)cn2)c(=O)c1Cc1cccnc1 [Compound 197, 5-methyl-2-[5-(phenylsulfonyl)pyridin-2-yl]-4-(pyridin-3-ylmethyl)-1,2-dihydro-3H-pyrazol-3-one]
208 °C | Cc1[nH]n(-c2ccccn2)c(=O)c1Cc1ccncc1 (as salt: HCl) [Compound 176]
108 °C | CCN(c1ccccc1)S(=O)(=O)c1ccc(-n2[nH]c(C)c(Cc3ccccc3OC)c2=O)nc1 [Compound 57]
120 °C | COc1cccc(Cc2c(C)[nH]n(-c3ccccn3)c2=O)c1 [Compound 193]
138 °C | Cc1[nH]n(-c2ccc(S(=O)(=O)N(C)C3CC3)cn2)c(=O)c1Cc1cccnc1 (as salt: HCl) [Compound 95]
176 °C | CCN(c1ccccc1)S(=O)(=O)c1ccc(-n2[nH]c(C)c(Cc3ccc(OCCOC)cc3)c2=O)nc1 [Compound 61]
78 °C | Cc1[nH]n(-c2ccccn2)c(=O)c1Cc1cccc(C(F)(F)F)c1 [Compound 185]
94 °C | Cc1[nH]n(-c2ccccn2)c(=O)c1Cc1ccc(C(F)(F)F)cc1 [Compound 186]
150 °C | COc1cncc(Cc2c(C)[nH]n(-c3ccc(S(=O)(=O)NC(C)(C)C)cn3)c2=O)c1 (as salt: HCl) [Compound 96]
68 °C | COCCOc1cccc(Cc2c(C)[nH]n(-c3ccccn3)c2=O)c1 [Compound 181]
128 °C | Cc1[nH]n(-c2ccccn2)c(=O)c1CCc1ccccc1 [Compound 196]
96 °C | COc1ccc(Cc2c(C)[nH]n(-c3ccccn3)c2=O)cc1 [Compound 191]

Further lines, the compound ahead of its results:

Compound | melting point
CCN(c1ccccc1)S(=O)(=O)c1ccc(-n2[nH]cc(CCC(=O)O)c2=O)nc1 [Compound 110] | 214 °C
COC(=O)C(c1ccccc1)c1c[nH]n(-c2ccc(S(=O)(=O)NC(C)(C)C)cn2)c1=O (stereo not drawn) [Compound 113, methyl {2-[5-(tert-butylsulfamoyl)pyridin-2-yl]-3-oxo-2,3-dihydro-1H-pyrazol-4-yl}(phenyl)acetate] | 66 °C
COC(C)(C)CNS(=O)(=O)c1ccc(-n2[nH]cc(Cc3ccccc3)c2=O)nc1 (as salt: HCl) [Compound 141] | 194 °C
CCN(c1ccccc1)S(=O)(=O)c1ccc(-n2[nH]c(CC(=O)N(C)C)c(Cc3ccccc3)c2=O)nc1 [Compound 109] | 163 °C
COc1cncc(Cc2c(C)[nH]n(-c3ccc(S(=O)(=O)N(C)C(C)(C)C)cn3)c2=O)c1 [Compound 102] | 84 °C
COC(=O)CC(c1ccccc1)c1c[nH]n(-c2ccc(S(=O)(=O)N(C)C3CCCC3)cn2)c1=O (stereo not drawn) [Compound 114] | 80 °C
CC(C)(C)CNS(=O)(=O)c1ccc(-n2[nH]cc(Cc3cccnc3)c2=O)nc1 (as salt: HCl) [Compound 136] | 123 °C
CCN(c1ccccc1)S(=O)(=O)c1ccc(-n2[nH]cc(CCC(=O)OC)c2=O)nc1 [Compound 112] | 128 °C
CCN(c1ccccc1)S(=O)(=O)c1ccc(-n2[nH]cc(Cc3cncc(OC)c3)c2=O)nc1.Cl | 136 °C
CN1CCC(N(C)S(=O)(=O)c2ccc(-n3[nH]cc(Cc4ccccc4)c3=O)nc2)C1 (stereo not drawn) (as salt: HCl) [Compound 139] | 130 °C
CCN(C1CCCC1)S(=O)(=O)c1ccc(-n2[nH]cc(Cc3cccnc3)c2=O)nc1 (as salt: HCl) [Compound 115] | 110 °C
COc1ccncc1Cc1c[nH]n(-c2ccc(S(=O)(=O)N(C)C3CCCC3)cn2)c1=O (as salt: HCl) [Compound 144] | 40 °C
Cc1[nH]n(-c2ccc(S(=O)(=O)N(C(C)C)C(C)C)cn2)c(=O)c1Cc1ccc(Cl)cc1Cl [Compound 15] | 226 °C
O=c1c(Cc2ccccc2)c[nH]n1-c1ccc(S(=O)(=O)NCCO)cn1 [Compound 157] | 180 °C
CN(C1CCCC1)S(=O)(=O)c1ccc(-n2[nH]cc(Cc3cccnc3)c2=O)nc1 (as salt: HCl) [Compound 117] | 124 °C
CCOC(=O)CC(c1ccccc1)c1c[nH]n(-c2ccc(S(=O)(=O)NC(C)(C)C)cn2)c1=O (stereo not drawn) [Compound 155] | 130 °C
COC(=O)CN(C1CCCC1)S(=O)(=O)c1ccc(-n2[nH]cc(Cc3cccnc3)c2=O)nc1 (as salt: HCl) [Compound 128, methyl N-cyclopentyl-N-({6-[5-oxo-4-(pyridin-3-ylmethyl)-2,5-dihydro-1H-pyrazol-1-yl]pyridin-3-yl}sulfonyl)glycinate hydrochloride] | 110 °C

Compound | melting point
CN(C1CCCC1)S(=O)(=O)c1ccc(-n2[nH]cc(Cc3ccncc3)c2=O)nc1 (as salt: HCl) [Compound 120] | 130 °C
CCN(c1ccccc1)S(=O)(=O)c1ccc(-n2[nH]cc(Cc3ccccc3)c2=O)nc1 (as salt: HCl) [Compound 93, 6-(4-benzyl-5-oxo-2,5-dihydro-1H-pyrazol-1-yl)-N-ethyl-N-phenylpyridine-3-sulfonamide] | 180 °C
O=c1c(Cc2ccccc2)c[nH]n1-c1ccc(S(=O)(=O)N(C[C@@H](O)CO)C2CCCC2)cn1 [Compound 142, 6-(4-benzyl-5-oxo-2,5-dihydro-1H-pyrazol-1-yl)-N-cyclopentyl-N-[(2R)-2,3-dihydroxypropyl]pyridine-3-sulfonamide] | 184 °C
CC(C)(C)OC(=O)c1ccc(-n2[nH]cc(Cc3cccnc3)c2=O)nc1 (as salt: HCl) [Compound 202] | 160 °C
CC(C)(C)NS(=O)(=O)c1ccc(-n2[nH]cc(Cc3ccncc3)c2=O)nc1 [Compound 150] | 226 °C
CCN(c1ccccc1)S(=O)(=O)c1ccc(-n2[nH]cc(CC(=O)N(C)C)c2=O)nc1 [Compound 105] | 168 °C
O=c1c(Cc2ccccc2)c[nH]n1-c1ccc(S(=O)(=O)N(C[C@H](O)CO)C2CCCC2)cn1 [Compound 148, 6-(4-benzyl-5-oxo-2,5-dihydro-1H-pyrazol-1-yl)-N-cyclopentyl-N-[(2S)-2,3-dihydroxypropyl]pyridine-3-sulfonamide] | 184 °C
CCN(c1ccccc1)S(=O)(=O)c1ccc(-n2[nH]c(C)c(CC3CCN(C)CC3)c2=O)nc1 (as salt: HCl) [Compound 94] | 150 °C
CCN(c1ccccc1)S(=O)(=O)c1ccc(-n2[nH]c(C)c(Cc3cncc(C#N)c3)c2=O)nc1 [Compound 97, 6-{4-[(5-cyanopyridin-3-yl)methyl]-3-methyl-5-oxo-2,5-dihydro-1H-pyrazol-1-yl}-N-ethyl-N-phenylpyridine-3-sulfonamide] | 164 °C
O=c1c(Cc2ccccc2)c[nH]n1-c1ccc(S(=O)(=O)N(CC(CO)CO)C2CCCC2)cn1 [Compound 147, 6-(4-benzyl-5-oxo-2,5-dihydro-1H-pyrazol-1-yl)-N-cyclopentyl-N-[3-hydroxy-2-(hydroxymethyl)propyl]pyridine-3-sulfonamide] | > 260 °C
CC(C)(C)COC(=O)c1ccc(-n2[nH]cc(Cc3cccnc3)c2=O)nc1 [Compound 198, 2,2-dimethylpropyl 6-[5-oxo-4-(pyridin-3-ylmethyl)-2,5-dihydro-1H-pyrazol-1-yl]pyridine-3-carboxylate] | 160 °C
COC(=O)CC(c1cccnc1)c1c[nH]n(-c2ccc(S(=O)(=O)NC(C)(C)C)cn2)c1=O (stereo not drawn) (as salt: HCl) [Compound 154, methyl 3-(2-[5-(tert-butylsulfamoyl)pyridin-2-yl]-3-oxo-2,3-dihydro-1H-pyrazol-4-yl)-3-(pyridin-3-yl)propanoate] | 146 °C
CN(C)CC(C)(C)NS(=O)(=O)c1ccc(-n2[nH]cc(Cc3ccccc3)c2=O)nc1 (as salt: HCl) [Compound 152] | 230 °C
CN(c1ccccc1)S(=O)(=O)c1ccc(-n2[nH]cc(Cc3ccccc3)c2=O)nc1 [Compound 153] | 198 °C
CCN(c1ccccc1)S(=O)(=O)c1ccc(-n2[nH]c(C)c(Cc3cccc(C(=O)OC)c3)c2=O)nc1 [Compound 111] | 172 °C
CCN(c1ccccc1)S(=O)(=O)c1ccc(-n2[nH]c(C)c(Cc3cccc(OCCN(C)C)c3)c2=O)nc1 (as salt: hydrochloride) [Compound 56, 6-(4-{3-[2-(dimethylamino)ethoxy]benzyl}-3-methyl-5-oxo-2,5-dihydro-1H-pyrazol-1-yl)-N-ethyl-N-phenylpyridine-3-sulfonamide hydrochloride] | 124 °C
CCN(C1CCCC1)S(=O)(=O)c1ccc(-n2[nH]cc(Cc3ccncc3)c2=O)nc1 (as salt: HCl) [Compound 119] | 115 °C
